Measurements taken from PubChem BioAssay (NCI).
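Five concentrations, 48 hours, 96-well plates. TGI marks complete inhibition of growth.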

Key:
Experiment in all cases: NCI anticancer screen, dose series, 48 h
786-0 renal = test system: 786-0 renal
A498 renal = test system: A498 renal
A549 NSCLC = test system: A549 NSCLC
ACHN renal = test system: ACHN renal
CCRF-CEM leukemia = test system: CCRF-CEM leukemia
COLO 205 colon = test system: COLO 205 colon
DLD-1 colon = test system: DLD-1 colon
DMS 114 small cell lung = test system: DMS 114 small cell lung
DMS 273 small cell lung = test system: DMS 273 small cell lung
EKVX NSCLC = test system: EKVX NSCLC
HCC-2998 colon = test system: HCC-2998 colon
HCT-116 colon = test system: HCT-116 colon
HCT-15 colon = test system: HCT-15 colon
HL-60(TB) leukemia = test system: HL-60(TB) leukemia
HOP-18 NSCLC = test system: HOP-18 NSCLC
HOP-62 NSCLC = test system: HOP-62 NSCLC
HOP-92 NSCLC = test system: HOP-92 NSCLC
HT29 colon = test system: HT29 colon
IGROV1 ovarian = test system: IGROV1 ovarian
K-562 leukemia = test system: K-562 leukemia
KM12 colon = test system: KM12 colon
KM20L2 colon = test system: KM20L2 colon
LOX IMVI melanoma = test system: LOX IMVI melanoma
LXFL 529 NSCLC = test system: LXFL 529 NSCLC
M14 melanoma = test system: M14 melanoma
M19-MEL melanoma = test system: M19-MEL melanoma
MALME-3M melanoma = test system: MALME-3M melanoma
MOLT-4 leukemia = test system: MOLT-4 leukemia
NCI-H23 lung = test system: NCI-H23 lung
NCI-H460 lung = test system: NCI-H460 lung
OVCAR-3 ovarian = test system: OVCAR-3 ovarian
OVCAR-4 ovarian = test system: OVCAR-4 ovarian
OVCAR-5 ovarian = test system: OVCAR-5 ovarian
OVCAR-8 ovarian = test system: OVCAR-8 ovarian
RPMI-8226 leukemia = test system: RPMI-8226 leukemia
RXF 393 renal = test system: RXF 393 renal
RXF-631 renal = test system: RXF-631 renal
SF-268 CNS = test system: SF-268 CNS
SF-295 CNS = test system: SF-295 CNS
SF-539 CNS = test system: SF-539 CNS
SK-MEL-28 melanoma = test system: SK-MEL-28 melanoma
SK-MEL-5 melanoma = test system: SK-MEL-5 melanoma
SK-OV-3 ovarian = test system: SK-OV-3 ovarian
SN12C renal = test system: SN12C renal
SNB-19 CNS = test system: SNB-19 CNS
SNB-75 CNS = test system: SNB-75 CNS
SNB-78 CNS = test system: SNB-78 CNS
SR leukemia = test system: SR leukemia
SW-620 colon = test system: SW-620 colon
TK-10 renal = test system: TK-10 renal
U251 CNS = test system: U251 CNS
UACC-257 melanoma = test system: UACC-257 melanoma
UACC-62 melanoma = test system: UACC-62 melanoma
UO-31 renal = test system: UO-31 renal
XF 498 CNS = test system: XF 498 CNS
CAKI-1 renal = test system: CAKI-1 renal
NCI-H226 lung = test system: NCI-H226 lung
NCI-H522 lung = test system: NCI-H522 lung
SK-MEL-2 melanoma = test system: SK-MEL-2 melanoma

Measured: TGI

O=C(O)C1CCCCN1C(=O)c1ccccc1 (stereo not given)
not listed: CAKI-1 renal | NCI-H226 lung | NCI-H522 lung | SK-MEL-2 melanoma
> 100 µM: all other assays above

C[C@H]1CC(=O)C2=CCCC3(SCCCS3)[C@@H]2[C@H]1CO
not listed: HCT-15 colon | KM20L2 colon | SNB-78 CNS
> 100 µM: all other assays above

COC(=O)N/N=C/c1oc(-c2ccccc2)c(-c2ccccc2)c1[N+](=O)[O-]
not listed: A498 renal | CCRF-CEM leukemia | EKVX NSCLC | HOP-18 NSCLC | SK-MEL-2 melanoma
> 100 µM: all other assays above
